Measured values from PubChem BioAssay AID256 (DTP/NCI, 2004).
Values joined by “and” are separate entries in the source; they are usually repeats but may differ in a detail not shown here. Equal values may be shown once. Toxic doses and inconclusive results are not listed.

Test system: CD2F1 mice, L1210 leukemia ip, survival T/C
Test: NCI In Vivo Anticancer Drug Screen. Data for tumor model L1210 Leukemia (intraperitoneal) in CD2F1 (CDF1) mice
Conditions: higher = longer survival
Experimental: The antitumor activity of compounds was measured in mice bearing transplantable tumors. Survival or tumor size were measured and the results are expressed as the measurement made in the treated group (T) divided by the measurement made in the vehicle treated control group (C). The tumor model used in this assay is L1210 Leukemia (intraperitoneal) in CD2F1 (CDF1) mice

[1] = endpoint: mean survival time, dose: 50.0 mg/kg/injection, schedule: Q01DX009 (ip), vehicle: saline with Tween-80
[2] = endpoint: mean survival time, dose: 100.0 mg/kg/injection, schedule: Q01DX009 (ip), vehicle: saline with Tween-80
[3] = endpoint: mean survival time, dose: 200.0 mg/kg/injection, schedule: Q01DX009 (ip), vehicle: saline with Tween-80
[4] = endpoint: mean survival time, dose: 100.0 mg/kg/injection, schedule: Q01DX001 (ip), vehicle: saline with Tween-80
[5] = endpoint: mean survival time, dose: 200.0 mg/kg/injection, schedule: Q01DX001 (ip), vehicle: saline with Tween-80
[6] = endpoint: mean survival time, dose: 400.0 mg/kg/injection, schedule: Q01DX001 (ip), vehicle: saline with Tween-80
[7] = endpoint: mean survival time, dose: 100.0 mg/kg/injection, schedule: Q01DX009 (ip), vehicle: saline
[8] = endpoint: mean survival time, dose: 200.0 mg/kg/injection, schedule: Q01DX009 (ip), vehicle: saline

In the case of `c1ccc(N/N=C(/N=Nc2ccc(-c3ccc(N=N/C(=N/Nc4ccccc4)c4ccccc4)cc3)cc2)c2ccccc2)cc1`, the T/C [1] was 97 % of control, the T/C [2] was 97 % of control and the T/C [3] was 102 % of control.
For `CCCCN1C(=O)C=CC1=O`, the T/C (endpoint: mean survival time, dose: 0.78 mg/kg/injection, schedule: Q01DX009 (ip), vehicle: saline with Tween-80) was 94 % of control, the T/C (endpoint: mean survival time, dose: 1.56 mg/kg/injection, schedule: Q01DX009 (ip), vehicle: saline with Tween-80) was 105 % of control and the T/C (endpoint: mean survival time, dose: 3.12 mg/kg/injection, schedule: Q01DX009 (ip), vehicle: saline with Tween-80) was 91 % of control.
In the case of `O=C(Nc1ccccc1)C(Cl)Cl`, the T/C (endpoint: mean survival time, dose: 100.0 mg/kg/injection, schedule: Q04DX003 (ip), vehicle: saline with Tween-80) was 103 % of control, the T/C (endpoint: mean survival time, dose: 200.0 mg/kg/injection, schedule: Q04DX003 (ip), vehicle: saline with Tween-80) was 103 % of control and the T/C (endpoint: mean survival time, dose: 400.0 mg/kg/injection, schedule: Q04DX003 (ip), vehicle: saline with Tween-80) was 97 % of control.
For `Nc1cc(Cl)c2[nH]cnc2n1`, the T/C (endpoint: mean survival time, dose: 6.25 mg/kg/injection, schedule: Q01DX009 (ip), vehicle: distilled water + Tween-80) was 107 % of control, the T/C (endpoint: mean survival time, dose: 6.25 mg/kg/injection, schedule: Q01DX009 (ip), vehicle: water) was 102 % of control and the T/C (endpoint: mean survival time, dose: 12.5 mg/kg/injection, schedule: Q01DX009 (ip), vehicle: distilled water + Tween-80) was 120 % of control. For the same compound, the T/C (endpoint: mean survival time, dose: 12.5 mg/kg/injection, schedule: Q01DX009 (ip), vehicle: water) was 113 % of control, the T/C (endpoint: mean survival time, dose: 25.0 mg/kg/injection, schedule: Q01DX009 (ip), vehicle: distilled water + Tween-80) was 150 % of control and the T/C (endpoint: mean survival time, dose: 50.0 mg/kg/injection, schedule: Q01DX009 (ip), vehicle: distilled water + Tween-80) was 150 % of control and 164 % of control. The T/C (endpoint: mean survival time, dose: 50.0 mg/kg/injection, schedule: Q04DX003 (ip), vehicle: Klucel (hydroxypropylcellulose) (HPC)) was 118 % of control and 110 % of control, the T/C (endpoint: mean survival time, dose: 85.0 mg/kg/injection, schedule: Q04DX003 (ip), vehicle: saline with Tween-80) was 108 % of control and the T/C (endpoint: mean survival time, dose: 100.0 mg/kg/injection, schedule: Q01DX009 (ip), vehicle: distilled water + Tween-80) was 151 % of control and 185 % of control. For the same compound, the T/C (endpoint: mean survival time, dose: 100.0 mg/kg/injection, schedule: Q04DX003 (ip), vehicle: Klucel (hydroxypropylcellulose) (HPC)) was 115 % of control and 109 % of control, the T/C (endpoint: mean survival time, dose: 200.0 mg/kg/injection, schedule: Q01DX009 (ip), vehicle: distilled water + Tween-80) was 153 % of control and 228 % of control and the T/C (endpoint: mean survival time, dose: 200.0 mg/kg/injection, schedule: Q04DX003 (ip), vehicle: Klucel (hydroxypropylcellulose) (HPC)) was 108 % of control. For the same compound, the T/C (endpoint: mean survival time, dose: 300.0 mg/kg/injection, schedule: Q04DX003 (ip), vehicle: Klucel (hydroxypropylcellulose) (HPC)) was 120 % of control and 109 % of control, the T/C (endpoint: mean survival time, dose: 400.0 mg/kg/injection, schedule: Q01DX009 (ip), vehicle: distilled water + Tween-80) was 100 % of control and the T/C (endpoint: median survival time, dose: 6.0 mg/kg/injection, schedule: Q01DX009 (ip), vehicle: Klucel (hydroxypropylcellulose) (HPC)) was 108 % of control. For the same compound, the T/C (endpoint: median survival time, dose: 12.0 mg/kg/injection, schedule: Q01DX009 (ip), vehicle: Klucel (hydroxypropylcellulose) (HPC)) was 119 % of control, the T/C (endpoint: median survival time, dose: 25.0 mg/kg/injection, schedule: Q01DX005 (ip), vehicle: saline with Tween-80) was 120 % of control and the T/C (endpoint: median survival time, dose: 25.0 mg/kg/injection, schedule: Q01DX009 (ip), vehicle: Klucel (hydroxypropylcellulose) (HPC)) was 152 % of control. The T/C (endpoint: median survival time, dose: 25.0 mg/kg/injection, schedule: Q01DX009 (ip), vehicle: saline with Tween-80) was 153 % of control, the T/C (endpoint: median survival time, dose: 50.0 mg/kg/injection, schedule: Q01DX009 (ip), vehicle: Klucel (hydroxypropylcellulose) (HPC)) was 172 % of control and the T/C (endpoint: median survival time, dose: 50.0 mg/kg/injection, schedule: Q01DX009 (ip), vehicle: saline with Tween-80) was 188 % of control. The T/C (endpoint: median survival time, dose: 100.0 mg/kg/injection, schedule: Q01DX005 (ip), vehicle: saline with Tween-80) was 161 % of control, the T/C (endpoint: median survival time, dose: 100.0 mg/kg/injection, schedule: Q01DX009 (ip), vehicle: Klucel (hydroxypropylcellulose) (HPC)) was 178 % of control and the T/C (endpoint: median survival time, dose: 100.0 mg/kg/injection, schedule: Q01DX009 (ip), vehicle: saline with Tween-80) was 160 % of control. For the same compound, the T/C (endpoint: median survival time, dose: 200.0 mg/kg/injection, schedule: Q01DX005 (ip), vehicle: saline with Tween-80) was 159 % of control.
In the case of `Nc1nc2c(nnn2C2CC(O)C(CO)C2)c(=O)[nH]1` (stereo not drawn), the T/C [2] was 100 % of control and the T/C [3] was 104 % of control.
In the case of `O=C(N/N=C/c1ccc2c(c1)OCO2)c1cccc(C(F)(F)F)c1`, the T/C (endpoint: mean survival time, dose: 12.5 mg/kg/injection, schedule: Q01DX009 (ip), vehicle: saline with Tween-80) was 95 % of control, the T/C (endpoint: mean survival time, dose: 25.0 mg/kg/injection, schedule: Q01DX009 (ip), vehicle: saline with Tween-80) was 91 % of control and the T/C [1] was 91 % of control and 104 % of control. For the same compound, the T/C [3] was 89 % of control.
`O=C(OCc1ccccc1)c1ccccc1` was tested, and the T/C (endpoint: mean survival time, dose: 100.0 mg/kg/injection, schedule: Q04DX002 (ip), vehicle: Klucel (hydroxypropylcellulose) (HPC)) was 90 % of control, the T/C (endpoint: mean survival time, dose: 200.0 mg/kg/injection, schedule: Q04DX002 (ip), vehicle: Klucel (hydroxypropylcellulose) (HPC)) was 100 % of control and the T/C (endpoint: mean survival time, dose: 400.0 mg/kg/injection, schedule: Q04DX002 (ip), vehicle: Klucel (hydroxypropylcellulose) (HPC)) was 90 % of control.
With `CC1(C)Cc2ccccc2O1` the T/C [2] was 104 % of control and the T/C [3] was 91 % of control.
`NC(=O)c1n[nH]c(C2OC(COP(=O)(O)O)C(O)C2O)n1` (stereo not drawn) was tested, and the T/C (endpoint: mean survival time, dose: 12.5 mg/kg/injection, schedule: Q01DX005 (ip), vehicle: water) was 100 % of control, the T/C (endpoint: mean survival time, dose: 25.0 mg/kg/injection, schedule: Q01DX005 (ip), vehicle: water) was 100 % of control and the T/C (endpoint: mean survival time, dose: 50.0 mg/kg/injection, schedule: Q01DX005 (ip), vehicle: water) was 96 % of control. The T/C (endpoint: mean survival time, dose: 100.0 mg/kg/injection, schedule: Q01DX005 (ip), vehicle: water) was 97 % of control and the T/C (endpoint: mean survival time, dose: 200.0 mg/kg/injection, schedule: Q01DX005 (ip), vehicle: water) was 96 % of control.
`CC12CC=CCC1CCC/C2=N/O` (stereo not drawn) was tested, and the T/C [4] was 113 % of control, the T/C (endpoint: mean survival time, dose: 100.0 mg/kg/injection, schedule: Q04DX003 (ip), vehicle: acetone) was 96 % of control and the T/C [5] was 97 % of control. For the same compound, the T/C (endpoint: mean survival time, dose: 200.0 mg/kg/injection, schedule: Q04DX003 (ip), vehicle: acetone) was 98 % of control, the T/C [6] was 103 % of control and the T/C (endpoint: mean survival time, dose: 400.0 mg/kg/injection, schedule: Q04DX003 (ip), vehicle: acetone) was 96 % of control.
With `CCCN(CCC)CC(C)O` (stereo not drawn) the T/C (endpoint: mean survival time, dose: 50.0 mg/kg/injection, schedule: Q01DX009 (ip), vehicle: saline) was 95 % of control, the T/C [7] was 101 % of control and the T/C [8] was 97 % of control.
`NNC(=O)c1ccc(-c2ccccc2)cc1` was tested, and the T/C (endpoint: mean survival time, dose: 1.56 mg/kg/injection, schedule: Q01DX009 (ip), vehicle: Klucel (hydroxypropylcellulose) (HPC)) was 100 % of control, the T/C (endpoint: mean survival time, dose: 3.13 mg/kg/injection, schedule: Q01DX009 (ip), vehicle: Klucel (hydroxypropylcellulose) (HPC)) was 98 % of control and the T/C (endpoint: mean survival time, dose: 6.25 mg/kg/injection, schedule: Q01DX009 (ip), vehicle: Klucel (hydroxypropylcellulose) (HPC)) was 96 % of control. For the same compound, the T/C (endpoint: mean survival time, dose: 12.5 mg/kg/injection, schedule: Q01DX009 (ip), vehicle: Klucel (hydroxypropylcellulose) (HPC)) was 102 % of control, the T/C (endpoint: mean survival time, dose: 25.0 mg/kg/injection, schedule: Q01DX009 (ip), vehicle: Klucel (hydroxypropylcellulose) (HPC)) was 94 % of control and the T/C (endpoint: mean survival time, dose: 25.0 mg/kg/injection, schedule: Q01DX009 (ip), vehicle: water) was 108 % of control. The T/C (endpoint: mean survival time, dose: 50.0 mg/kg/injection, schedule: Q01DX009 (ip), vehicle: water) was 102 % of control and the T/C (endpoint: mean survival time, dose: 100.0 mg/kg/injection, schedule: Q01DX009 (ip), vehicle: water) was 100 % of control.
With `NC(N)=NNC(=O)C(=O)O` the T/C [7] was 98 % of control, the T/C [8] was 110 % of control and the T/C (endpoint: mean survival time, dose: 400.0 mg/kg/injection, schedule: Q01DX009 (ip), vehicle: saline) was 100 % of control.
In the case of `CC(=O)Nc1nc(C)c(CC/C=C/c2ccc([N+](=O)[O-])cc2)c(Cl)n1`, the T/C [4] was 94 % of control, the T/C [5] was 89 % of control and the T/C [6] was 89 % of control.
